# Laboratory results as given in US20050059610A1 (priority 2003, published 2005).
# Entries after “also recorded” stand apart in the source; their conditions may differ. Like-named read-outs stand apart in the source and are kept apart here.
# Columns and labels:
# [1] = test system: HSP 72 and 27; assay: HSP expression in hearts of LPS-injured rats (Western blot); type: in vivo, rat; conditions: 0.75 g/kg GLN with 5 mg/kg LPS; six hours; vs LR control
# Protocol: GLN enhances heat shock protein expression in the unstressed and stressed myocardium. […] The increase was also observed for HSP 27 (another of the protective heat shock proteins) wherein the induction occurred as early as 4-6 hours and persisted for up to 48-72 hours.
# Tissues were harvested six hours post-LPS injury and analyzed for HSP 72 expression via Western blot. Each lane represents protein extracts from a separate animal. Relative densitometry are expressed as means ±SE. *−p<0.0005, compared with LR resuscitation alone assessed by Students t test.
# [2] = test system: cardiomyocytes; assay: Ischemia/reperfusion injury of isolated cardiomyocytes; type: cell-based
# Protocol: Spontaneously contracting cardiomyocytes were studied.
# Cardiomyocytes were allowed to equilibrate at baseline normoxic conditions for 60 minutes.
# [3] = test system: myocardial tissue metabolism; assay: Rat working heart model, myocardial tissue metabolism by 1H-/31P-MRS; type: in vivo
# Protocol: The tissue was analyzed for ATP, ADP, and ATP/ADP ratio via ^31P-magnetic resonance spectroscopy (MRS) and for creatine/phosphocreatine content via ^1H-magnetic resonance spectroscopy (MRS). […] The tissue was analyzed for lactate content via ^1H-MRS. […] Glutamine pretreatment enhances myocardial tissue content (glutamine, glutamate, and glucose) content following myocardial I/R injury in the rat. […] Glutamate is a vital tissue substrate following myocardial injury and it is beneficial that a single dose of […]/R injury can preserve tissue levels of this key substrate following injury. […] This key finding confirms that it is possible to enhance myocardial tissue substrate content (particularly glutamate) with a (pre-operative) remote GLN pre-treatment dose. […] Substrates were analyzed via ^1H-MRS. […] The tissue was analyzed for myocardial tissue reduced glutathione content via ^1H-magnetic resonance spectroscopy (MRS). […] Glutamine pretreatment preserves myocardial NAD (+)/NADH content following myocardial I/R injury in the rat. […] The tissue was analyzed for NAD (+)/NADH content via ^31P-magnetic resonance spectroscopy (MRS). […] NAD(+)/NADH was analyzed via […]. (**-p<0.01 versus pre-ischemic values, ##-p<0.01 versus post-ischemic LR control tissue via ANOVA.)
# [4] = test system: polymicrobial sepsis (CLP); assay: Cecal ligation and puncture (CLP): lung and heart tissue metabolism by MRS, survival; type: in vivo, Sprague-Dawley rats
# Protocol: Survival was monitored for five days. In a separate group of animals (n=4/group), lung and heart tissue was harvested 24 hours post-CLP and tissue metabolism was analyzed by ^1H-MRS and ^31P-MRS.
# [5] = test system: heatstroke; assay: Experimental heatstroke in the rat, oral GLN; type: in vivo, Sprague-Dawley Rats
# Protocol: Heatstroke was performed in anesthetized rats (ketamine/xylazine) by heating animals to 42 deg C. (rectal temperature) for 30 minutes. Survival was analyzed for five days post-heatstroke. In a separate set of animals, HSP 70 and Heat Shock Factor-1 activation (HSF-1) were analyzed at 1-hour and 24-hours post-heatstroke in heart and lung tissue via western blot (n=10/group). Statistical analysis was performed via Fischer's Exact Test for survival and ANOVA with Duncan grouping as post-hoc test for HSP-70 and HSF-1 expression.
# [6] = test system: sepsis (CLP); assay: CLP with or without quercetin (HSP 70 inhibitor): survival, lung HSP/NOS, metabolism, TNF; type: in vivo, Sprague-Dawley rats
# Protocol: Methods: Male Sprague-Dawley rats were divided into 5 groups. Two groups were treated with 400 mg/kg of quercetin (Q) IP (HSP 70 inhibitor) 6 hours pre-CLP. […] The final group (CONT, n=6) received no treatment. Five-day survival was monitored. In separate studies, lung was harvested 24-hours post-CLP and tissue metabolism analyzed by 31P- and 1H-MRS. A final study analyzed blood for TNF- at 6 hours post-CLP and lung tissue 6 hours post-CLP for HSP-70, iNOS, eNOS, and activated heat shock factor-1 (HSF-1).
# [7] = test system: onset of ischemia (1 mm of ST depression); assay: Exercise stress test in patients with chronic stable angina, crossover trial; type: in vivo, human; conditions: oral GLN 80 mg/kg 40 minutes prior to exercise stress test; 17 patients; vs placebo
# Text: Patients were then crossed over following a one-week interval.
# [8] = test system: critically ill patients; assay: Clinical outcomes in critically ill patients, glutamine vs control; type: in vivo, human
# [9] = test system: intestinal epithelial cells; assay: Protection of cells against heat and oxidant stress; type: cell-based
# Text: This was proven when blockade of HSP 70 expression via quercetin (inhibits HSF-1 binding) and via direct antisense inhibition of the HSP-70 gene (FIG. 12).
# [10] = test system: myocardial ischemia/reperfusion injury
# [11] = test system: critically ill humans; conditions: cited from earlier work; for tolerability of the maximum dose previously administered in humans: even in critically ill patients
# [12] = in vivo; cited from earlier work
# [13] = five days of oral GLN prior to heatstroke
# [14] = GLN 0.75 g/kg IV one-hour post-CLP, 6 hours post-CLP
# [15] = non-pancreatic diagnoses, n = 7
smiles,measurement,setting,value
"NC(=O)CC[C@H](N)C(=O)O [GLN, Glutamine]",HSP 72 and 27 expression in heart (western blot),[1],markedly enhanced
same,HSP 72 content (western blot) vs cells not receiving GLN,[2]; 10 mM GLN,significant increase
same,return of contractile function following I/R injury,[2]; 10 mM GLN,significantly enhanced
same,cell death from ischemia/reperfusion,"[2]; 10 mM GLN one hour before and throughout ischemia and reperfusion, control 48%",22%
same,total ATP content following I/R injury,"[3]; 0.52 g/kg GLN 18 hours prior, vs control",improved
same,accumulation of myocardial lactate following I/R injury,[3]; GLN 18 hours prior,significant decrease; also recorded: decreased
same,myocardial tissue content of glutamine and glucose following I/R injury versus LR control,"[3]; GLN 18 hours prior, 1H-MRS",enhanced
same,myocardial tissue creatine/phosphocreatine content following I/R injury,"[3]; GLN 18 hours prior, 1H-MRS",enhanced
same,myocardial tissue reduced glutathione content following I/R injury,"[3]; GLN 18 hours prior, 1H-MRS",marked enhancement; also recorded: improved
same,post-ischemic glutamate levels versus pre-ischemic levels,"[3]; GLN 18 hours prior, 1H-MRS",no decrease
same,myocardial NAD(+)/NADH content following I/R injury,"[3]; GLN 18 hours prior, MRS",significant preservation; also recorded: improved
same,reduction of the increase in tissue lactate versus control animals,"[3]; GLN 18 hours prior, post I/R, 1H-MRS",> 55%
same,fall in lung tissue Creatine/phosphocreatine,[4]; 24 hours post-CLP,significantly attenuated
same,fall in lung tissue glucose,[4]; 24 hours post-CLP,significantly attenuated
same,fall in lung tissue glutamine,[4]; 24 hours post-CLP,significantly attenuated
same,lung lactate accumulation,"[4]; 24 hours post-CLP, p<0.06",trend towards a decrease
same,five day mortality rate post-CLP,[4]; GLN 0.75 g/Kg one hour post surgery,78%
same,NAD+ content in lung and heart tissue following CLP,"[4]; GLN 0.75 g/Kg one hour post surgery, 24 hours post-CLP",significant improvement
same,HSF-1 activation,[5]; 1-hour and 24-hours post-heatstroke,No change
same,HSP 70 expression in heart and lung tissue,"[5]; 1 hour post-heatstroke, versus unheated animals and heated controls",significantly enhanced
same,HSP 70 between GLN and control animals,[5]; 24 hours post-heatstroke,no significant difference
same,mortality following heatstroke,"[5]; GLN 0.65 g/kg gavage twice a day for five days, 42 deg C. for 30 minutes, control 62.5%",12.5%
same,"HSP 70 expression in heart, lung, and colon tissue",[5]; [13],enhanced
same,mortality from lethal heatstroke (in words),[5]; [13],significantly reduced
same,lung NAD+,"[6]; 24-hours post-CLP, MRS",improved
same,lung lactate accumulation,"[6]; 24-hours post-CLP, MRS",attenuated
same,lung eNOS,[6]; 6 hours post-CLP,enhanced
same,lung iNOS,[6]; 6 hours post-CLP,attenuated
same,plasma TNF- expression,[6]; 6 hours post-CLP,attenuated
same,5-day survival,[6]; GLN 0.75 g/kg IV one-hour post-CLP,significant improvement
same,lung HSF-1 activation,[6]; [14],enhanced
same,lung HSP70 expression,[6]; [14],enhanced
same,onset of ST depression,[7],significant delay
same,ICU days,"[8]; all diagnoses, n = 15",15.73 ± 16.18 days
same,Length of stay,"[8]; all diagnoses, n = 15",29.73 ± 14.46 days
same,Maximum Total Bilirubin (units??),"[8]; all diagnoses, n = 15",1.23 ± 0.67
same,Maximum Total Creatinine (units??),"[8]; all diagnoses, n = 15",1.26 ± 0.89
same,Number of bacterial infections,"[8]; all diagnoses, n = 15",0.20 ± 0.41
same,Number of infections,"[8]; all diagnoses, n = 15",1.87 ± 2.59
same,One or more bacterial infections (%),"[8]; all diagnoses, n = 15",20.0%
same,One or more infections (%),"[8]; all diagnoses, n = 15",60.0%
same,Ventilator days,"[8]; all diagnoses, n = 15",12.07 ± 15.25 days
same,ICU days,[8]; [15],16.71 ± 7.65 days
same,Length of stay,[8]; [15],25.29 ± 6.18 days
same,Maximum Total Bilirubin (units??),[8]; [15],1.70 ± 0.70
same,Maximum Total Creatinine (units??),[8]; [15],1.80 ± 1.07
same,Number of bacterial infections,[8]; [15],0.0 ± 0.0
same,Number of infections,[8]; [15],1.43 ± 1.40
same,One or more infections (%),[8]; [15],57.1%
same,One ore more bacterial infection (%),[8]; [15],0%
same,Ventilator days,[8]; [15],12.86 ± 9.03 days
same,protection of cells against heat and oxidant stress,[9],protection
same,recovery of cardiac flow following reperfusion,"[10]; 0.75 g/kg alanine-glutamine (0.52 g/kg glutamine) IP 18 hours prior, pre-load 8 and 12 mmHg",significantly improved
same,percent recovery of coronary flow,"[10]; 60 minutes following reperfusion, 0.52 g/kg GLN 18 hours prior",significantly enhanced
same,post-I/R cardiac output,[10]; single dose 18 hours prior to 15 minutes of no flow ischemia,significant improvement
same,tolerability of the maximum dose previously administered in humans,[11],without adverse side effects
same,tolerability of the maximum dose previously administered in humans,[11]; listed as L-Glutamine,tolerated well without adverse side effects
same,toxicity in critically ill humans,[11]; variety of clinical settings,without any evidence of toxicity
same,half-life,[12],6 h
